Test results published in patent US20050192279A1, “Pyridazinones as antagonists of alpha4 integrins” (priority 2004, published 2005).
Where “and” joins values, the source holds several entries; their conditions need not be identical. Identical values can stand only once.

Assays:
[1] = tested on: TNBS induced colitis; assay: Trinitrobenzenesulfonic acid (TNBS) Induced Colitis, rats; format: in vivo, Male Wistar rats; details: rat
Description: In Vivo Model: Trinitrobenzenesulfonic acid (TNBS) Induced Colitis The TNBS model of experimental colitis (Bobin-Dubigeon, C., Collin, X., Grimaud, N., Robert, J-M., Guillaume Le Baut, G., and Petit, J-Y. Effects of tumour necrosis factor-a synthesis inhibitors on rat trinitrobenzene sulphonic acid-induced chronic colitis. Eur. J. […] These symptomatic signs in the above—mentioned models are similar to what occur in human colitis. Male Wistar rats (200-250 g) are inoculated with 500 microliters of a solution of 10 to 20 mg of TNBS in 30% ethanol delivered intracolonically via catheter or ball-tipped gavage needle to the 8th cm from the anus. When Balb/c female mice (8-12 weeks of age) were used, the inoculation volume was 50 microliters containing 2-3 mg of TNBS in 30% ethanol delivered intracolonically via catheter or ball-tipped gavage needle to the 4th cm from the anus. During the ensuing 7 days, test animals were administered a preparation of an experimental compound. This material may be administered orally, subcutaenously or intraperitoneally, once or twice daily. At the end of this period, the animals were euthanized and their colons were collected for further analysis. Among the parameters analyzed were the length of the colon starting from the anus to the top of the cecum, the weight of the colon, the consistency of any stools found within the colon, the presence or absence of intraperitoneal adhesions on the serosal surfacr of the intestin, and the gross macroscopic appearance of the colon. […] In rats, the distal colon between the 5th and the 8th centimeter is dissected and placed in 10% neutral buffered formalin for later histological analysis. In mice, the 1st to the 4th cm was collected for histological analyses. For the following parameters—colon length, colon weight, stool consistency and appearance and macroscopic damage—a scoring system was used to describe the changes. The four scores for each animal were added to provide a Total Score. […] For the presence of blood in stool, one point was added to scores <3. […] Histological analyses of tissues consisted of staining paraffin-embedded tissue sections with hematoxylin-eosin dye. Epithelial damage scores were determined as the fraction of the tissue section showing damaged epithelium. […] Statistic analyses for these experiments performed with Graphpad Prism 4.0, using ANOVA, with Dunnets or Bonferroni's multiple comparisons test.

[2] = tested on: circulating leukocytes; assay: In Vivo Model for Leukocytosis; parameters: species or system Balb/c mice; details: bled 1-1.5 h after administration
Description: In Vivo Model for Leukocytosis
Leukocytosis is the increase in circulating white blood cells (leukocytes). This can be brought about by preventing leukocyte binding to counter-receptor adhesion molecules expressed on high endothelial venules. This cell adhesion occurs between immunoglobulin superfamily molecules and integrins. Relevant examples of these paired interactions include […] Adhesion Molecule-1 and AlphaL Beta2 integrin, Vascular Cell Adhesion Molecule-1 and α4β1 integrin, and Mucosal Addressin Cell Adhesion Molecule-1 and α4β7 integrin, respectively.
In this model, a compound that antagonizes these leukocyte-endothelial interactions will cause an increase in circulating leukocytes, defined as leukocytosis, as measured at 1-1.5 h post-administration. This leukocytosis is indicative that normal lymphocyte or leukocyte emigration from the peripheral circulation was prevented. Similar emigration of cells out of the circulation into inflamed tissues is responsible for the progression and maintainance of the inflammatory state. Leukocytosis is an indication that lymphocyte and leukocyte extravasation is prevented, and is predictive of general anti-inflammatory activity.
One week prior to being tested, 7-10 week old female Balb/c mice, n=8 per group, were bled and randomized according to leukocyte counts. One week later, the mice were adminstered test compound orally or subcutaneously and then bled 1-1.5 h after drug administration, approximately 1 h after the peak blood concentration of the compound occurred. Whole blood, 250-350 microliters, was collected from each mouse into potassium-EDTA serum collection tubes (Becton-Dickenson) and mixed to prevent clotting.
Cell counts and differential counts on the whole blood preparation were performed using an Advia 120 Hematology System (Bayer Diagnostics). Cell counts as total leukocytes and as total lympohcytes were made and compared to counts made from mice dosed with vehicle only. Data were reported as percent of vehicle control for lymphocyte counts and total leukocyte counts.
Statistical analyses were performed using ANOVA with Dunnet's multiple comparison test.

[3] = tested on: DSS induced colitis; assay: Dextran Sulfate Sodium (DSS) Induced Colitis; format: in vivo, Balb/c female mice and C57Black/6 mice
Description: In Vivo Model for Colitis: Dextran Sulfate Sodium (DSS) Induced Colitis Inflammatory bowel diseases such as ulcerative colitis and Crohn's disease are characterized by diminished intestinal barrier function, apparent inflammatory damage that may include erosive loss of intestinal mucosa, and inflammatory infiltrates in the mucosa and submucosa. […] Among the many possible chemicals used are dextran sulfate sodium (DSS) and trinitrobenzene sulfonic acid (TNBS). The dextran sulfate sodium model of experimental colitis is characterized by a shrinkage of the colon's length, macrosopic inflammatory damage, diarrhea, a discontinuous pattern of mucosal epithelial damage in the distal colon with infiltration of inflammatory cells that include macrophages and neutrophils into the mucosa and submucosa (Blumberg, R. S., Saubermann, L. J., and Strober, W. Animal models of mucosal inflammation and their relation to human inflammatory bowel disease. Current Opinion in Immunology, 11: 648-656, 1999; […]., and Nakaya, R. A novel method of induction of reliable experimental acute and chronic colitis in mice. […] Cooper, […]., and […]. Clinicopathologic study of dextran sulfate sodium experimental murine colitis. Lab Invest., 69: 238-249, 1993; […]., Bajaj-Elliott, M., MacDonald, […]., and Buchler, M. W. Characterization of acute murine dextran sodium sulphate colitis: Cytokine profile and dose dependency. Digestion, 62: 240-248, 2000; […]., Husband, A. J., and Doe, W. F. The inflammatory infiltrate in the acute stage of the dextran sulphate sodium induced colitis: B cell response differs depending on the percentage of DSS used to induce it. BMC Clinical Pathology, 1: 3-13, 2001; and Diaz-Granados, Howe, K., Lu, J, and […]. Dextran sulfate sodium-induced colonic histopathology, but not altered epithelial ion transport, is reduced by inhibition of phosphodiesterase activity. Amer. J. Pathology, 156: 2169-2177, 2000). Balb/c female mice and […]/6 mice were used in these studies. […] When […]/6 mice were used, a solution of tap water containing 4% DSS was used. During the ensuing 7-day period, test animals were administered a preparation of an experimental compound. This material may be administered orally or intraperitoneally or subcutaneously, once or twice daily. At the end of this period, the animals were euthanized and their colons were collected for further analysis. Among the parameters analyzed were the length of the colon starting from the anus to the top of the cecum, the consistency of any stools found within the colon, and the gross macroscopic appearance of the colon. The distal colon between the 1st and the 4th centimeter was removed and placed in 10% neutral buffered formalin for later histological analysis. For the following parameters, colon length, stool consistency and appearance, and macroscopic damage a scoring system is used to describe the changes. […] Thus, […] Histological analyses of tissues consisted of staining paraffin-embedded tissue sections with hematoxylin-eosin dye. Epithelial damage scores were determined as the fraction of the tissue section showing damaged epithelium. […] Statistical analysis performed in Graphpad Prism 4.0 using ANOVA with Dunnet's or Bonferroni's multiple comparison's test.

[4] = tested on: eosinophil peroxidase levels in ear punches; assay: PMA-Induced Inflammation in Mouse Ear Skin and Measurement of Eosinophil Peroxidase; format: in vivo, BALB/C mice; details: total dose 5 mg/kg po bid; ear punches 24 h after PMA; 5 mg/kg
Description: Phorbol 12-Myristate 13-Acetate (PMA)-Induced Inflammation in Mouse Ear Skin and Measurement of Eosinophil Peroxidase
Phorbol 12-myristate 13-acetate (PMA) when applied to skin, generates a vigorous recruitment of immune cells to the site of application. Over a 24 hour period, there is accumulation of fluid and cells to the inflamed site, and thus is a general indicator of an inflammatory response. Among the recruited cells are eosinophils and neutrophils. Eosinophils can migrate into an inflamed or infected tissue via alpha 4 beta 1 integrin interactions with vascular cell adesion molecule-1 (VCAM-1) counter-receptors on vascular endothelial cells, and via alpha 4 beta 7 integrin to mucosal addressin cellular adhesion molecule on vascular endothelial cells in the gastrointestinal tract and mesenteric system. The recruited esoinophils can be quantified by measuring the presence of eosinophil peroxidase in a sample of the homogenized tissue.
Female BALB/C mice are ordered at 6 weeks of age and 16-18 grams from Charles River were used between 6-10 weeks of age. The animals were randomly assigned to groups of 10 (5/box) and housed in groups in plastic cages in a room with 12 h light-dark cycle and controlled temperature and humidity. They received food and water ad libitum.
Phorbol 12-myristate 13-acetate (PMA) was dissolved as 5 mg per mL stock in dimethyl sulfoxide (DMSO) and stored frozen as 20 microliter aliquots. For application to mouse ears, each aliquot was diluted in 2 mL with acetone.
The right ear of each mouse was treated topically with 20 microliters of acetone solution (10 microliters to each side of the ear) containing either 1 microgram of phorbol 12-myristate 13-acetate (PMA) or acetone alone.
Drugs that were tested orally were administered at −1 and +3 hours relative to PMA application.
Mice were sacrificed 24 h after PMA application. The right ear was punched with a 6 mm tissue punch and the tissue was placed in a tube on dry ice and kept frozen until extraction.
One tablet of phosphate citrate buffer was dissolved with urea hydrogen peroxide in 100 ml of water in which one tablet containing 60 mg of o-phenylenediaminedihydrochloride was added.
Ear tissue samples were homogenized in 2 ml of HTAB for 15 sec at speed 5.5 with a Polytron (large head) (Brinkman Instruments). The homogenate was stored at −20° C. until assayed. […]
Samples were typically tested at either a 1:2 or 1:4 dilution made with HTAB. […] Absorbance was read at 490 nm for the specific with subtraction of a 650 nm noise signal using a Thermomax 96-well spectrophotmetric plate reader (Molecular Devices). […]
The inhibition of PMA-induced ear edema was measured by eosinophil peroxidase levels in ear punches. […]

[5] = 30 mg/kg po bid, C57 Black/6 mice
[6] = 60 mg/kg po bid, C57 Black/6 mice

SMILES | % Inhibition of Epithelial Damage Score ([1]; 30 mg/kg po bid) | % Inhibition of Total Macroscopic Score ([1]; 30 mg/kg po bid) | % Inhibition of Epithelial Damage Score ([1]; 60 mg/kg po bid) | % Inhibition of Total Macroscopic Score ([1]; 60 mg/kg po bid) | Lymphoycte Counts % of Vehicle Control ([2]; 3 mg/kg po) | Total Leukocyte Count % of Vehicle Control ([2]; 3 mg/kg po) | Lymphoycte Counts % of Vehicle Control ([2]; 10 mg/kg po) | Total Leukocyte Count % of Vehicle Control ([2]; 10 mg/kg po) | Lymphoycte Counts % of Vehicle Control ([2]; 30 mg/kg po) | Total Leukocyte Count % of Vehicle Control ([2]; 30 mg/kg po) | % Inhibition of Epithelial Damage Score [3, 5] | % Inhibition of Total Macroscopic Score [3, 5] | % Inhibition of Total Macroscopic Score ([3]; 30 mg/kg po bid, balb/c mice) | % Inhibition of Epithelial Damage Score [3, 6] | % Inhibition of Total Macroscopic Score [3, 6] | % Inhibition of Epithelial Damage Score ([3]; 60 mg/kg po bid, balb/c mice) | % Inhibition of Total Macroscopic Score ([3]; 60 mg/kg po bid, balb/c mice) | % Inh. of Eosinophil Peroxidase [4]
COc1cnn(CCO)c(=O)c1-c1ccc(C[C@H](NC(=O)OC(C)(C)C)C(=O)OCCO)cc1 [Cpd 231] | 24.69% | 19.33% | 38.64% | 5.455% | 114.5% | 110.7% | 94.0% | 98.0% | 88.7% | 86.9% | 23.91% | 13.4% | 43.8% | 53.9% | 23.4% | 36.5% | 47.7% | 
C[C@@H]1C[C@H]2[C@@H]3CCC4=CC(=O)C=C[C@]4(C)[C@@]3(F)[C@@H](O)C[C@]2(C)[C@@]1(O)C(=O)CO [dexamethasone] |  |  |  |  |  |  |  |  |  |  |  |  |  |  |  |  |  | 83.6% and 109.0%
